Data taken from patent US6586460B1, “Heteroarotinoids containing urea or thiourea linker” (The Board of Regents for Oklahoma State University, priority 2001, dated 2003).

Tested on: RARE reporter in the SW962 vulvar carcinoma cell line
Experiment: RARE reporter transactivation through endogenous receptors
Type: cell-based
Experimental: Both heteroarotinoids 11 and 13 resemble 4-HPR in that all are potent inducers of apoptosis. Since 4-HPR acts through a receptor-independent mechanism, agent 11 was evaluated for ability to transactivate a RARE reporter through endogenous receptors in the SW962 vulvar carcinoma cell line. […] Nelson, S. Subramanian, G. M. Weerasekare, J. B. Gale, M. K. Patterson, Jr., B. Wang, W. Wang, S. Lu, T. C. Rowland, P. DiSivestro, C. Lindamood, D. L. Hill, and K. D. Berlin]. No induction of the retinoid receptors was observed although 9-cis-RA casued a 4 to 10 fold induction of RARE-driven transcription in the same experiment with the SW962 cell line.

## CC1(C)CC(C)(C)c2cc(NC(=S)Nc3ccc([N+](=O)[O-])cc3)ccc2S1 [heteroarotinoid 11]
  induction of RARE-driven transcription: No induction
